# Experimental data reported in ChEMBL document CHEMBL1201862, “PubChem BioAssay data set” (2004).
#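 Five compound concentrations were applied to cells in 96-well plates for 48 hours; endpoints were derived by simple linear interpolation of the resulting dose-response curve. GI50 marks 50% less growth.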 The source made the active and inactive calls. No stated cut-off is given here; in the data, active = GI50 up to about 1.1 µM and inactive = higher.
# Legend:
# Test in all cases: NCI anticancer screen, dose series, 48 h
# [1] = tested on: EKVX
# [2] = tested on: MOLT-4
# [3] = tested on: LOX IMVI
# [4] = tested on: NCI-H23
# [5] = tested on: SK-MEL-2
# [6] = tested on: HT-29
# [7] = tested on: PC-3
# [8] = tested on: SF-539
# [9] = tested on: CCRF-CEM
# [10] = tested on: U-251
# [11] = tested on: OVCAR-3
# [12] = tested on: SK-OV-3
# [13] = tested on: RXF 393
# [14] = tested on: BT-549
# [15] = tested on: SNB-75
# [16] = tested on: RPMI-8226
# [17] = tested on: HCT-116
# [18] = tested on: SR
# [19] = tested on: MDA-MB-435
# [20] = tested on: OVCAR-8
# [21] = tested on: MDA-N
# [22] = tested on: SK-MEL-28
# [23] = tested on: DU-145
# [24] = tested on: SNB-19
# [25] = tested on: SF-268
# [26] = tested on: Malme-3M
# [27] = tested on: SN12C
# [28] = tested on: IGROV-1
# [29] = tested on: ACHN
# [30] = tested on: HL-60
# [31] = tested on: M14
# [32] = tested on: A498
# [33] = tested on: CAKI-1
# [34] = tested on: NCI-H226
# [35] = tested on: MCF7
# [36] = tested on: K562
# [37] = tested on: NCI-H522
# [38] = tested on: HOP-62
# [39] = tested on: T47D
# [40] = tested on: COLO 205
# [41] = tested on: OVCAR-5
# [42] = tested on: NCI-H460
# [43] = tested on: A549
# [44] = tested on: TK-10
# [45] = tested on: Hs-578T
# [46] = tested on: SW-620
# [47] = tested on: SF-295
# [48] = tested on: UO-31
# [49] = tested on: UACC-62
# [50] = tested on: 786-0
# [51] = tested on: UACC-257
# [52] = tested on: MDA-MB-231
# [53] = tested on: KM12
# [54] = tested on: HCC 2998
# [55] = tested on: SK-MEL-5
# [56] = tested on: HCT-15
# [57] = tested on: OVCAR-4
# [58] = tested on: NCI/ADR-RES
# [59] = tested on: HOP-92
smiles,measurement,setting,value
COc1cccc(C2c3cc4c(cc3OC(NNc3ccccc3)C2C)OCO4)c1OC (stereo unspecified),GI50,[1],3.45 µM (inactive)
same,GI50,[2],2.55 µM (inactive)
same,GI50,[3],16.5 µM (inactive)
same,GI50,[4],10.7 µM (inactive)
same,GI50,[5],10.1 µM (inactive)
same,GI50,[6],12 µM (inactive)
same,GI50,[7],1.76 µM (inactive)
same,GI50,[8],4.14 µM (inactive)
same,GI50,[9],3.72 µM (inactive)
same,GI50,[10],6.04 µM (inactive)
same,GI50,[11],4.4 µM (inactive)
same,GI50,[12],49.1 µM (inactive)
same,GI50,[13],3.76 µM (inactive)
same,GI50,[14],7.28 µM (inactive)
same,GI50,[15],11.2 µM (inactive)
same,GI50,[16],2.92 µM (inactive)
same,GI50,[17],3.78 µM (inactive)
same,GI50,[18],1.06 µM (active)
same,GI50,[19],3.04 µM (inactive)
same,GI50,[20],7.6 µM (inactive)
same,GI50,[21],5.46 µM (inactive)
same,GI50,[22],24.2 µM (inactive)
same,GI50,[23],5.19 µM (inactive)
same,GI50,[24],17.6 µM (inactive)
same,GI50,[25],23.1 µM (inactive)
same,GI50,[26],12.2 µM (inactive)
same,GI50,[27],9.84 µM (inactive)
same,GI50,[28],4.6 µM (inactive)
same,GI50,[29],1.65 µM (inactive)
same,GI50,[30],4.05 µM (inactive)
same,GI50,[31],5.06 µM (inactive)
same,GI50,[32],14.9 µM (inactive)
same,GI50,[33],2.5 µM (inactive)
same,GI50,[34],5.06 µM (inactive)
same,GI50,[35],4.73 µM (inactive)
same,GI50,[36],1.49 µM (inactive)
same,GI50,[37],2.07 µM (inactive)
same,GI50,[38],3.64 µM (inactive)
same,GI50,[39],5.09 µM (inactive)
same,GI50,[40],3.77 µM (inactive)
same,GI50,[41],6.62 µM (inactive)
same,GI50,[42],3.26 µM (inactive)
same,GI50,[43],3.58 µM (inactive)
same,GI50,[44],2.61 µM (inactive)
same,GI50,[45],6.35 µM (inactive)
same,GI50,[46],19.1 µM (inactive)
same,GI50,[47],0.678 µM (active)
same,GI50,[48],2.82 µM (inactive)
same,GI50,[49],2.78 µM (inactive)
same,GI50,[50],19.4 µM (inactive)
same,GI50,[51],5.06 µM (inactive)
same,GI50,[52],17.5 µM (inactive)
same,GI50,[53],1.59 µM (inactive)
same,GI50,[54],2.29 µM (inactive)
same,GI50,[55],14 µM (inactive)
same,GI50,[56],2.18 µM
COC(=O)C1CC2(CCC1=O)Cc1ccccc1C2=O (stereo unspecified),GI50,[1],89.5 µM (inactive)
same,GI50,[2],48.5 µM (inactive)
same,GI50,[3],> 100 µM (inactive)
same,GI50,[4],> 100 µM (inactive)
same,GI50,[5],> 100 µM (inactive)
same,GI50,[6],> 100 µM (inactive)
same,GI50,[7],> 100 µM (inactive)
same,GI50,[8],> 100 µM (inactive)
same,GI50,[9],50.4 µM (inactive)
same,GI50,[10],> 100 µM (inactive)
same,GI50,[12],> 100 µM (inactive)
same,GI50,[13],14.5 µM (inactive)
same,GI50,[14],> 100 µM (inactive)
same,GI50,[15],> 100 µM (inactive)
same,GI50,[16],65.5 µM (inactive)
same,GI50,[17],87.7 µM (inactive)
same,GI50,[18],37.8 µM (inactive)
same,GI50,[20],> 100 µM (inactive)
same,GI50,[21],> 100 µM (inactive)
same,GI50,[57],> 100 µM (inactive)
same,GI50,[22],> 100 µM (inactive)
same,GI50,[23],> 100 µM (inactive)
same,GI50,[24],> 100 µM (inactive)
same,GI50,[25],> 100 µM (inactive)
same,GI50,[26],> 100 µM (inactive)
same,GI50,[27],> 100 µM (inactive)
same,GI50,[28],> 100 µM (inactive)
same,GI50,[29],> 100 µM (inactive)
same,GI50,[30],> 100 µM (inactive)
same,GI50,[31],> 100 µM (inactive)
same,GI50,[33],> 100 µM (inactive)
same,GI50,[34],47.4 µM (inactive)
same,GI50,[35],> 100 µM (inactive)
same,GI50,[36],42.3 µM (inactive)
same,GI50,[37],67.8 µM (inactive)
same,GI50,[38],> 100 µM (inactive)
same,GI50,[39],> 100 µM (inactive)
same,GI50,[40],> 100 µM (inactive)
same,GI50,[41],> 100 µM (inactive)
same,GI50,[42],> 100 µM (inactive)
same,GI50,[43],> 100 µM (inactive)
same,GI50,[44],> 100 µM (inactive)
same,GI50,[45],> 100 µM (inactive)
same,GI50,[46],> 100 µM (inactive)
same,GI50,[47],82.2 µM (inactive)
same,GI50,[48],> 100 µM (inactive)
same,GI50,[49],> 100 µM (inactive)
same,GI50,[50],> 100 µM (inactive)
same,GI50,[51],> 100 µM (inactive)
same,GI50,[52],> 100 µM (inactive)
same,GI50,[53],> 100 µM (inactive)
same,GI50,[54],> 100 µM (inactive)
same,GI50,[55],> 100 µM (inactive)
same,GI50,[56],> 100 µM
same,GI50,[58],99.5 µM (inactive)
CCOC(=O)C(=[N+]=[N-])C(=O)CN1C(=O)c2ccccc2C1=O,GI50,[1],> 100 µM (inactive)
same,GI50,[2],> 100 µM (inactive)
same,GI50,[4],> 100 µM (inactive)
same,GI50,[5],> 100 µM (inactive)
same,GI50,[6],> 100 µM (inactive)
same,GI50,[7],> 100 µM (inactive)
same,GI50,[8],> 100 µM (inactive)
same,GI50,[10],> 100 µM (inactive)
same,GI50,[11],> 100 µM (inactive)
same,GI50,[12],> 100 µM (inactive)
same,GI50,[13],> 100 µM (inactive)
same,GI50,[14],> 100 µM (inactive)
same,GI50,[15],> 100 µM (inactive)
same,GI50,[17],> 100 µM (inactive)
same,GI50,[19],> 100 µM (inactive)
same,GI50,[20],> 100 µM (inactive)
same,GI50,[21],> 100 µM (inactive)
same,GI50,[57],> 100 µM (inactive)
same,GI50,[22],> 100 µM (inactive)
same,GI50,[23],> 100 µM (inactive)
same,GI50,[24],> 100 µM (inactive)
same,GI50,[25],> 100 µM (inactive)
same,GI50,[27],> 100 µM (inactive)
same,GI50,[28],> 100 µM (inactive)
same,GI50,[29],> 100 µM (inactive)
same,GI50,[31],> 100 µM (inactive)
same,GI50,[32],> 100 µM (inactive)
same,GI50,[33],> 100 µM (inactive)
same,GI50,[35],> 100 µM (inactive)
same,GI50,[36],> 100 µM (inactive)
same,GI50,[37],> 100 µM (inactive)
same,GI50,[38],> 100 µM (inactive)
same,GI50,[39],> 100 µM (inactive)
same,GI50,[40],> 100 µM (inactive)
same,GI50,[41],> 100 µM (inactive)
same,GI50,[42],> 100 µM (inactive)
same,GI50,[43],> 100 µM (inactive)
same,GI50,[44],> 100 µM (inactive)
same,GI50,[45],> 100 µM (inactive)
same,GI50,[46],> 100 µM (inactive)
same,GI50,[47],> 100 µM (inactive)
same,GI50,[48],> 100 µM (inactive)
same,GI50,[49],> 100 µM (inactive)
same,GI50,[50],> 100 µM (inactive)
same,GI50,[51],> 100 µM (inactive)
same,GI50,[52],> 100 µM (inactive)
same,GI50,[54],> 100 µM (inactive)
same,GI50,[55],> 100 µM (inactive)
same,GI50,[56],> 100 µM
same,GI50,[59],> 100 µM (inactive)
